Data reported in US20120128654A1, “Allantoin Administration for the Treatment of Neurodegenerative Disease and Neurotrauma” (UNIVERSITY OF CINCINNATI, priority 2009, published 2012).
Entries after “also recorded” stand apart in the source; their conditions may differ.

Key:
[1] = Whole brain allantoin levels after subcutaneous allantoin pellets (blood brain barrier crossing); format: in vivo, Sprague Dawley rats; settings: non-lesioned rats, s.c. allantoin pellets, three days following pellet implantation, relative to control rats
Text: Continuous s.c. delivery of INO, KO and ALL was achieved by implanting matrix-driven pellets into the s.c. space. Animals were anesthetized with isofluorane and prepared for surgery using sterile procedures. A small incision was made posterior to the scapula and the pellet was placed in the subscapular space contralateral to the incision. This placement technique prevents migration of the pellet towards the incision, thereby reducing the incidents of rejection. Finally, the incision was closed using aseptic procedures. To determine the roles of UA and allantoin in inosine-mediated neuroprotection, animals were treated with the urate oxidase inhibitor KO. This approach has been widely used to prevent the enzymatic metabolism of UA to allantoin in other rodent models of disease.
To measure brain allantoin levels, whole brains were freeze dried, ground into a fine powder and homogenized in 0.8 ml of 2.5% trichloroacetic acid (TCA) per 100 mg. The homogenate was centrifuged at 18,000 rpm for 15 min. […] The remaining supernatant was then analyzed for allantoin.
To determine the ability of allantoin to cross the intact blood brain barrier (BBB), non-lesioned rats received either allantoin pellets or sham implantation. […] Whole brain levels of allantoin were determined enzymatically.

[2] = Oral allantoin administration, plasma allantoin levels in monkeys; format: in vivo, African green monkey
Experimental: To determine whether oral allantoin administration could increase plasma levels of allantoin in non-human primates, African green monkeys were fed allantoin (n=4). All monkeys were initially fed 26 mg/kg/day for 1 week, after which the allantoin concentration was increased to a level of 52 mg/kg/day for an additional week. The allantoin was mixed to the appropriate concentration in fruit juice and given to the monkeys to drink. For plasma analysis of allantoin venous blood was obtained from the right ventricle (rat) and collected from repeated blood draws (African green monkey). Blood was immediately centrifuged at 10,500 rpms (this needs to be in G) for 5 minutes. Supernatant was then removed and analyzed for allantoin. Enzymatic detection of allantoin was performed as previously described with the exception of reaction volumes being adjusted to accommodate the use of a 96 well microtiter plate (Muratsubaki et al., Enzymatic assay of allantoin in serum using allantoinase and allantoate amidohydrolase, Anal. Biochem. 359:161-166 (2006)). […] Following a 15 minute incubation, absorbance was read on a spectrometer at 340 nm. […] Following a 10 minute incubation absorbance was once again measured at 340 nm. The final absorbance was subtracted from the absorbance following the addition of allantoinase. […] Allantoin levels in plasma were determined utilizing the enzymatic detection assay. […]

With `NC(=O)NC1NC(=O)NC1=O` (stereo not drawn) [allantoin] the “whole brain allantoin levels” value [1] was “approximately double; also recorded: significant increase”, the plasma allantoin levels ([2]; African green monkey, oral, after one week at 52 mg/kg/day (following 1 week at 26 mg/kg/day), vs baseline, trough) was “tripling” and the negative health consequences ([2]; monkeys, oral allantoin 26 then 52 mg/kg/day, 1 week each) was “Neither the rats nor the monkeys exhibited any obvious negative health consequences”.
